Experiment [1] is described as follows: Luminescence Cell-Based Dose Confirmation HTS to Identify Inhibitors of Platelet Dense Granule Release. [Related pubchem assays: 1663 (Primary HTS), 1678 (Summary of Project)]. It is filed as functional.
Experiment [2] has as its target Luciferin 4-monooxygenase (Photinus pyralis, UniProt P08659). The experiment is described as follows: inhibition of purified Photinus pyralis luciferase – biochemical, luminescence, dose response (AID 1891).
A short description of experiment [3]: Fluorescence Cell-Based Dose Response to Identify Inhibitors of Thrombin Receptor-Activating Peptide SFLLRN-Mediated P-Selectin Induction on Platelets. [Related pubchem assays: 1663 (Primary HTS), 1889 (retest at dose ), 1891 (counterscreen), 1678 (Project Summary)]. It is filed as functional. Background: The purpose of a counterscreen is to sort out artefacts and off-target activity.

Experiment [4] concerns the target T1, Replicative DNA helicase DnaB (Mycobacterium tuberculosis, UniProt P9WMR3).
T1 sequence (P9WMR3 whole entry): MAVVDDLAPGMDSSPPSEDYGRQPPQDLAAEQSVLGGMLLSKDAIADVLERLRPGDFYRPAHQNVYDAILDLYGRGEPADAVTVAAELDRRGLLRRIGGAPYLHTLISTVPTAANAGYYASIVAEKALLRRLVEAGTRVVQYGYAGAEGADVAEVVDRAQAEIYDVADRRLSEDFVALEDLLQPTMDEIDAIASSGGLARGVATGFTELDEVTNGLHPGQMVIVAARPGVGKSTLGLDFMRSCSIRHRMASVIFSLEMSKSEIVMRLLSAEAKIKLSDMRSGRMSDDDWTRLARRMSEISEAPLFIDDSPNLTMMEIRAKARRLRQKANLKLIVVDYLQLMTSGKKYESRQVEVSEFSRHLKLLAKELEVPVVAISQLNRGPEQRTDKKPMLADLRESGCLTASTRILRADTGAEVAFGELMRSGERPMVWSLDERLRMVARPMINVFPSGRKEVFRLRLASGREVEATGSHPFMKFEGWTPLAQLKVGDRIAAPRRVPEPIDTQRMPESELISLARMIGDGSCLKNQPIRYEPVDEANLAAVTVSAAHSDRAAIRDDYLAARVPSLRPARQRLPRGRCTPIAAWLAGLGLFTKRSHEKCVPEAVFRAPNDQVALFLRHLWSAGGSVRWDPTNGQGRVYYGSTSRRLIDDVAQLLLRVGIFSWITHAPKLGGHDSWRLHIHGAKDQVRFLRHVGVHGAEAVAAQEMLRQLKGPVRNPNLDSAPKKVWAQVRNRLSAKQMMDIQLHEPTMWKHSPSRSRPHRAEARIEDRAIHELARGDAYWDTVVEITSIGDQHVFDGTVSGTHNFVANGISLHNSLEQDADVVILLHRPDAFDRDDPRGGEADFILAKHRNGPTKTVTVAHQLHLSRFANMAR
The experiment is described as follows: DnaB intein splicing inhibitors, dose response, biochemical, cell-free fluorescence (AID 449749). The experiment is classed as functional.

Another experiment deals with T2, Protein RecA (Mycobacterium tuberculosis, UniProt P9WHJ3).
T2 sequence (P9WHJ3 whole entry): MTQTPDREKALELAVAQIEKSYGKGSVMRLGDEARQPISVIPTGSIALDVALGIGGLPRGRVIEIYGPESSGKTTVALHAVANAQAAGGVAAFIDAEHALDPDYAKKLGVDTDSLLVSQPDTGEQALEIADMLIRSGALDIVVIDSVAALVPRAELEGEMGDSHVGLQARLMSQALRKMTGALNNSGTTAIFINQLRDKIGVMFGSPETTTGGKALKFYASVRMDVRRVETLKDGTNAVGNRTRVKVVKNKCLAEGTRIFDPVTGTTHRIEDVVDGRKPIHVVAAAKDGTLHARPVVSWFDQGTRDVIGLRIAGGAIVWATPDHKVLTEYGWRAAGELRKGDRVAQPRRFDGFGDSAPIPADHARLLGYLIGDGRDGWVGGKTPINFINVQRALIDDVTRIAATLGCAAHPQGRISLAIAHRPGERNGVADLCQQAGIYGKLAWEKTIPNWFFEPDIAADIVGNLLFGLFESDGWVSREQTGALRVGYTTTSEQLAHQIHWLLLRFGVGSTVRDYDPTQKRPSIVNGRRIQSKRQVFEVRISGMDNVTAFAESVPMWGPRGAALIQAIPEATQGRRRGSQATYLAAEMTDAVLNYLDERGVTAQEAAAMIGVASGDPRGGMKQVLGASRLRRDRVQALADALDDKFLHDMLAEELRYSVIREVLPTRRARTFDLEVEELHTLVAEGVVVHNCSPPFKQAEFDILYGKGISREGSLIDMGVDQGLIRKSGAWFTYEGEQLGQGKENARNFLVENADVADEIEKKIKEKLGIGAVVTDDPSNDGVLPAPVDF
The experiment is described as follows: Fluorescence Cell-Free Homogeneous Dose Retest to Identify Inhibitors of RecA-Intein Splicing Activity. [Related pubchem assays (depositor defined):AID2097, AID2223, AID489010, AID492950]. It is filed as functional.

The nature of experiment [5]: M. tuberculosis H37Rv growth inhibitors, H37Rv strain (AID 1626). It is filed as functional.
The target of the next experiment is Large T antigen (Simian virus 40, UniProt P03070). The experiment is classed as functional, Betapolyomavirus macacae.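 Also: Confirmatory-stage PubChem screen for compounds that inhibit SV40 T antigen.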
Sequence of Large T antigen (P03070 whole entry): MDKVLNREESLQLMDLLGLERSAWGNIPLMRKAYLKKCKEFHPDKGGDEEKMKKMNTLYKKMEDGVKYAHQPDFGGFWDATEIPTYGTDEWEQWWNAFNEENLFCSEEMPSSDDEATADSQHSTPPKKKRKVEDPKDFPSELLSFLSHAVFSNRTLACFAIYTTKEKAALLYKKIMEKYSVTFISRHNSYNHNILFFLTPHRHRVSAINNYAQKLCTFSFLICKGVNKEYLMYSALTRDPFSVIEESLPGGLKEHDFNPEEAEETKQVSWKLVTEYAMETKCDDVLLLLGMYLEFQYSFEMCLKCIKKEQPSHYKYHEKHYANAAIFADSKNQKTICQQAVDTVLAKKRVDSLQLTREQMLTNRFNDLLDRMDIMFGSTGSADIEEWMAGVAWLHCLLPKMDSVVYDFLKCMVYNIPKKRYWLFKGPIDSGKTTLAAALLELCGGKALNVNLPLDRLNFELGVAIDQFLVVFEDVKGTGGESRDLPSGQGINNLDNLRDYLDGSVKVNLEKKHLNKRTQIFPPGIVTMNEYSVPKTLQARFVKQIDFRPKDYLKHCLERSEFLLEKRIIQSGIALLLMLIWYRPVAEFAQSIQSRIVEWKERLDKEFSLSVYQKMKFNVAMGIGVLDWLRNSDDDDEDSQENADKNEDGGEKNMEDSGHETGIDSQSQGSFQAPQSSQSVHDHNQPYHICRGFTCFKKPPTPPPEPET
Experiment [6] can be described thus: Dd2 malaria parasite growth inhibition potency – SYBR Green, dry powder samples, dose response (AID 1159566).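 Also: potency for growth inhibition with lower SYBR green DNA signal.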 The experiment is classed as functional, cell-based.
Experiment [7] can be described thus: growth inhibition of yeast DHODH-expressing 3D7 parasites – SYBR Green, dry powder samples, dose response (AID 1159570).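 Also: parasite growth measured after 72 hours of compound exposure.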 The experiment is classed as functional, cell-based.
The nature of experiment [8]: P. falciparum Dd2 growth inhibitors, dose response, SYBR Green, cherry-picked samples (AID 1159567). It is filed as functional, cell-based.
A short description of experiment [9]: Dd2 parasite growth inhibition in erythrocytes – SYBR Green, dry powder samples, set 9, dose response (AID 1159568). It is filed as functional, cell-based.
The nature of experiment [10]: toxicity to human HepG2 hepatoma cells – cell-based, plate reader, dry powder samples, cytotoxicity control, dose response (AID 1159569).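 Also: inhibitor potency with signal falling toward the positive control level.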 It is filed as functional.
The nature of experiment [11]: Plasmodium falciparum Dd2 Sybr green parasite growth Measured in Cell-Based and Microorganism Combination System Using Plate Reader - 2153-01_Inhibitor_Dose_DryPowder_Activity_Set3. The experiment is classed as functional.
Experiment [12] in a line: growth inhibition of PfATP4-mutant resistant parasites – NITD609-resistant line, SYBR Green, dry powder, dose response (AID 1159571).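 Also: parasites synchronized at ring stage by sorbitol before testing.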 The experiment is classed as functional, cell-based.
The target of the next experiment is NADPH oxidase 1 (Homo sapiens, UniProt Q9Y5S8). It is filed as functional, cell-based.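 Also: Cell-based assay with luminescence read-out, IC50 derived from inhibitor dose-response curves; intracellular ROS from endogenous NOX1 in intact HT29 colon cancer cells; potency of inhibitors that lower the ROS luminescence signal.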
Sequence of NADPH oxidase 1 (Q9Y5S8 whole entry): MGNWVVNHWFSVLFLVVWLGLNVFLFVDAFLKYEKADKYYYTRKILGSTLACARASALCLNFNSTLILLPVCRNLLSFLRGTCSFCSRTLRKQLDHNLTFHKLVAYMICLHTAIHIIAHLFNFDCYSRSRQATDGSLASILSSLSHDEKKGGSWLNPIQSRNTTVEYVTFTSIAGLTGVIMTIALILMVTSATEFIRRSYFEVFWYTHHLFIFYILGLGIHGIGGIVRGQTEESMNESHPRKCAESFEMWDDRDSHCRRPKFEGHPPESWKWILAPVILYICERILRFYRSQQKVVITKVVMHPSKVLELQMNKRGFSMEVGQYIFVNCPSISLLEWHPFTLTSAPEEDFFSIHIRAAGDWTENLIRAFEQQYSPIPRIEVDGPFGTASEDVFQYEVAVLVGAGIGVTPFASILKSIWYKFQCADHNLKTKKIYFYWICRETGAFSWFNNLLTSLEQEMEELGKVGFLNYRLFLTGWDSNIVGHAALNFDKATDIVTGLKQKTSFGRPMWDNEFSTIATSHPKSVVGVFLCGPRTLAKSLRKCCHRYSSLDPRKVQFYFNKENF
The target of another experiment is Genome polyprotein (Hepatitis C virus, UniProt Q2Q167). The experiment is described as follows: disruption of hepatitis C core self-association – biochemical, TR-FRET, dose response (AID 2159).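 Also: blocks dimerization of HCV core protein measured by TR-FRET between tagged core106 pairs.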 Also on record: species or system Hepacivirus hominis. On the technique in general: TR-FRET usually uses a lanthanide donor and a delayed reading to cut background.
Sequence of Genome polyprotein (Q2Q167 whole entry): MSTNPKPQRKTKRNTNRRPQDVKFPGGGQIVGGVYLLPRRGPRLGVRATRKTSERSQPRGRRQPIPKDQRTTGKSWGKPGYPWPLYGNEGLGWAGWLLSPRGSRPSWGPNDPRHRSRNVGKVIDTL
Experiment [13] is described as follows: rise of 2N DNA cells, HeLa – IC50, dose response (AID 1117349). It is filed as functional, cell-based.
The nature of experiment [14]: rise of 4N DNA cells, HeLa – IC50, dose response (AID 1117351). The experiment is classed as functional, cell-based.
Experiment [15] addresses DNA dC->dU-editing enzyme APOBEC-3G (Homo sapiens, UniProt Q9HC16). The experiment is described as follows: Dose Response confirmation of small molecule APOBEC3G DNA Deaminase Inhibitors via a fluorescence-based single-stranded DNA deaminase assay. [Related pubchem assays (depositor defined):AID493012, AID493028]. It is filed as functional.
The nature of experiment [16]: Potency on glucagon-like peptide 1 release, dose-response in NCI-H716 cell line, half maximal inhibitory concentration (AID 1117344). The experiment is classed as functional, cell-based.
A short description of experiment [17]: glucagon-like peptide-1 release potency in STC-1, concentration-response, half-maximal inhibitory concentration in the STC-1 line (AID 1117345). It is filed as functional, cell-based.

Calls of active or inactive are those of the source. Bounds are passed on as bounds.

Sequence of DNA dC->dU-editing enzyme APOBEC-3G (Q9HC16 whole entry): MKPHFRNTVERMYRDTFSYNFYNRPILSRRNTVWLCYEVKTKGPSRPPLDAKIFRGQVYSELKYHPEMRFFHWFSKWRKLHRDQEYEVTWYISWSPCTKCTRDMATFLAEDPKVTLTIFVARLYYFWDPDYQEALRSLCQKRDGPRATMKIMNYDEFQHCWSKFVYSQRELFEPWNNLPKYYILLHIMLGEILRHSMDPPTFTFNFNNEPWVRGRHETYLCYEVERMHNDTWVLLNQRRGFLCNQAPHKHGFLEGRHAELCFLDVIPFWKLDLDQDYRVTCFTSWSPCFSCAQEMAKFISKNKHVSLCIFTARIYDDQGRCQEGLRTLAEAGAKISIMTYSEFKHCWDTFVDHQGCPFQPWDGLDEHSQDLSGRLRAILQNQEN
Sequence of Luciferin 4-monooxygenase (P08659 whole entry): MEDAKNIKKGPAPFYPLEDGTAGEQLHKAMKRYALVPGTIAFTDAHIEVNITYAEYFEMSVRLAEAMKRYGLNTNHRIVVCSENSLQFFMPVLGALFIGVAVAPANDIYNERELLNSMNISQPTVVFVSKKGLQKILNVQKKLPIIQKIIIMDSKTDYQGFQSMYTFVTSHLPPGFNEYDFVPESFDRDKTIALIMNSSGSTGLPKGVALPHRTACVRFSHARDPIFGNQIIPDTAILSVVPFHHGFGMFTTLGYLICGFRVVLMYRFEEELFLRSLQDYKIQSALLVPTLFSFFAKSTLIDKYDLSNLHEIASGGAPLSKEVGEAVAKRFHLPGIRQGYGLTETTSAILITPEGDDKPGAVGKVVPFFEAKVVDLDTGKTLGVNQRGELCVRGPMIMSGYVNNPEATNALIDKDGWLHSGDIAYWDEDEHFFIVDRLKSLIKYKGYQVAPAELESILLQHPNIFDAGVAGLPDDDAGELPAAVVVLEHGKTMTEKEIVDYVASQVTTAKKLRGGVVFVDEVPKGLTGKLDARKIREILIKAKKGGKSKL

For orientation: EC50 means the concentration giving half of the maximal effect. Turning to `COC(=O)CS(=O)(=O)c1ccc2c(c1)CC(=O)N2`, the EC50 in [1] is 1.45 µM (active); in experiment [2], > 112 µM (not active); in experiment [3] it was < 1 µM (active).
As a reminder, the AC50 is the midpoint of the concentration-response curve, whichever way the signal moves. As usually defined, the IC50 is the concentration that inhibits the measured activity by half. Regarding `Oc1cnn(-c2ccccc2)c1`, the AC50 in experiment [4] is 12.7 µM (active). The EC50 on Protein RecA was 1.1 µM (active). The IC50 was > 100 µM (active) in experiment [5] and 4.71 µM (active) on Large T antigen.
In the case of `CO[C@@H]1CN(C)C(=O)c2ccc(NC(=O)Nc3ccccc3F)cc2OC[C@@H](C)N(CC2CC2)C[C@H]1C`, the AC50 was 0.0955 µM (active) in [6]; 6.67 µM (active) in experiment [7]; 0.399 µM (active) in [8]; 0.799 µM (active) in [9]; > 100 µM (inactive) in [10]; 3.04 µM (active) in experiment [11]. Also, the AC50 in [12] is 0.961 µM (active).
In the case of `C[C@@H]1CCCCO[C@H](CN(C)S(=O)(=O)c2ccc(F)cc2)[C@H](C)CN([C@@H](C)CO)C(=O)c2cc(N(C)C)ccc2O1`, the AC50 in experiment [9] is 5.44 µM (active).
Take `CCCC(=O)Nc1ccc2c(c1)OC[C@@H](C)N(Cc1ccccc1F)C[C@@H](C)[C@H](OC)CN(C)C2=O`: the AC50 in experiment [6] is 0.34 µM (active); in experiment [7], 4.01 µM (active); in experiment [8], 0.841 µM (active); in experiment [11], 1.78 µM (active); in experiment [12] it was 1.33 µM (active).
Take `Clc1ccccc1-c1nc(-c2ccccc2)c(-c2ccccc2)[nH]1`: the IC50 on NADPH oxidase 1 is reported as > 17 µM (not active).
As for `O=C1c2c(O)cccc2Cc2cccc(O)c21` [ANTHRALIN], the IC50 was > 49.8 µM (not active) against Genome polyprotein, > 10 µM (inactive) in experiment [13], > 10 µM (inactive) in experiment [14] and > 100 µM (inactive) in [15].
In the case of `COc1ccc(OC(=O)N(CC(=O)O)Cc2ccc(OCCc3nc(-c4ccccc4)oc3C)cc2)cc1` [MURAGLITAZAR], the IC50 in [16] is 36.2 µM (inactive); in [17] it was 1.54 µM (active).

These data come from ChEMBL document CHEMBL1201862, “PubChem BioAssay data set” (2004).
